Laboratory results taken from ChEMBL document CHEMBL3885881, “DrugMatrix”.

Species on record: Rattus norvegicus
Assay: DrugMatrix - Regimen: Daily Repeat
Type: toxicity, organism-based, Sprague-Dawley
Parameters: regimen Daily Repeat, gender Male, age 6-8 weeks
Details: in vivo, po, route oral GAVAGE, […]; for ABSOLUTE BASOPHIL / ABSOLUTE EOSINOPHIL / ABSOLUTE LYMPHOCYTE / ABSOLUTE MONOCYTE / ABSOLUTE SEGMENTED NEUTROPHIL / BASOPHIL / EOSINOPHIL / ERYTHROCYTE COUNT / HEMATOCRIT / HEMOGLOBIN / LEUKOCYTE COUNT / LYMPHOCYTE / MEAN CORPUSCULAR HEMOGLOBIN / MEAN CORPUSCULAR HEMOGLOBIN CONCENTRATION / MEAN CORPUSCULAR VOLUME / MONOCYTE / NEUTROPHIL / NUCLEATED RED BLOOD CELLS / PLATELET COUNT: tissue Blood; for ALANINE AMINOTRANSFERASE / ALBUMIN / ALKALINE PHOSPHATASE / ASPARTATE AMINOTRANSFERASE / BLOOD UREA NITROGEN / CARBON DIOXIDE / CHLORIDE / CHOLESTEROL / CREATINE PHOSPHOKINASE / CREATININE / GLUCOSE / LACTATE DEHYDROGENASE / LIPASE / PHOSPHORUS / POTASSIUM / SODIUM / TOTAL BILIRUBIN / TOTAL PROTEIN / URIC ACID: tissue Plasma
[1] = 40 mg/kg, 72 h, dose level Low, time 3 day
[2] = 40 mg/kg, 120 h, dose level Low, time 5 day
[3] = 450 mg/kg, 72 h, dose level High, time 3 day
[4] = 450 mg/kg, 120 h, dose level High, time 5 day

## CC(c1cc2ccccc2s1)N(O)C(N)=O (configuration not stated) [ZILEUTON]
[1]
  ABSOLUTE BASOPHIL: 0 CELLS/uL
  ABSOLUTE EOSINOPHIL: 103.33 CELLS/uL
  ABSOLUTE LYMPHOCYTE: 13682 CELLS/uL
  ABSOLUTE MONOCYTE: 0 CELLS/uL
  ABSOLUTE SEGMENTED NEUTROPHIL: 1348 CELLS/uL
  BASOPHIL: 0%
  EOSINOPHIL: 0.67%
  ERYTHROCYTE COUNT: 5.58 x10E6/uL
  HEMATOCRIT: 34.97%
  HEMOGLOBIN: 13.77 G/DL
  LEUKOCYTE COUNT: 15.13 x10E3/uL
  LYMPHOCYTE: 90.33%
  MEAN CORPUSCULAR HEMOGLOBIN: 24.67 pg
  MEAN CORPUSCULAR HEMOGLOBIN CONCENTRATION: 39.37 G/DL
  MEAN CORPUSCULAR VOLUME: 62.67 fL
  MONOCYTE: 0%
  NEUTROPHIL: 9%
  NUCLEATED RED BLOOD CELLS: 0 /100WBC
  PLATELET COUNT: 1217.67 x10E3/uL
  ALANINE AMINOTRANSFERASE: 75.33 u/L
  ALBUMIN: 3.93 G/DL
  ALKALINE PHOSPHATASE: 442 u/L
  ASPARTATE AMINOTRANSFERASE: 87.67 u/L
  BLOOD UREA NITROGEN: 14 mg/dL
  CARBON DIOXIDE: 32.33 mmol/L
  CHLORIDE: 100 MEQ/L
  CHOLESTEROL: 66.67 mg/dL
  CREATINE PHOSPHOKINASE: 201.33 u/L
  CREATININE: 0.14 mg/dL
  GLUCOSE: 160 mg/dL
  LACTATE DEHYDROGENASE: 148.33 u/L
  LIPASE: 10.67 u/L
  PHOSPHORUS: 10.8 mg/dL
  POTASSIUM: 6.7 MEQ/L
  SODIUM: 140.3 MEQ/L
  TOTAL BILIRUBIN: 0.17 mg/dL
  TOTAL PROTEIN: 5.37 G/DL
  URIC ACID: 1.53 mg/dL
[2]
  ABSOLUTE BASOPHIL: 0 CELLS/uL
  ABSOLUTE EOSINOPHIL: 0 CELLS/uL
  ABSOLUTE LYMPHOCYTE: 9935.67 CELLS/uL
  ABSOLUTE MONOCYTE: 247 CELLS/uL
  ABSOLUTE SEGMENTED NEUTROPHIL: 1084 CELLS/uL
  BASOPHIL: 0%
  EOSINOPHIL: 0%
  ERYTHROCYTE COUNT: 5.6 x10E6/uL
  HEMATOCRIT: 34.1%
  HEMOGLOBIN: 13.83 G/DL
  LEUKOCYTE COUNT: 11.27 x10E3/uL
  LYMPHOCYTE: 89%
  MEAN CORPUSCULAR HEMOGLOBIN: 24.77 pg
  MEAN CORPUSCULAR HEMOGLOBIN CONCENTRATION: 40.57 G/DL
  MEAN CORPUSCULAR VOLUME: 60.97 fL
  MONOCYTE: 2%
  NEUTROPHIL: 9%
  NUCLEATED RED BLOOD CELLS: 0 /100WBC
  PLATELET COUNT: 1094 x10E3/uL
  ALANINE AMINOTRANSFERASE: 62 u/L
  ALBUMIN: 4.23 G/DL
  ALKALINE PHOSPHATASE: 479.33 u/L
  ASPARTATE AMINOTRANSFERASE: 79.33 u/L
  BLOOD UREA NITROGEN: 13.67 mg/dL
  CARBON DIOXIDE: 32 mmol/L
  CHLORIDE: 100.67 MEQ/L
  CHOLESTEROL: 62 mg/dL
  CREATINE PHOSPHOKINASE: 165.33 u/L
  CREATININE: 0.2 mg/dL
  GLUCOSE: 145 mg/dL
  LACTATE DEHYDROGENASE: 111.67 u/L
  LIPASE: 11 u/L
  PHOSPHORUS: 10.6 mg/dL
  POTASSIUM: 6.47 MEQ/L
  SODIUM: 141.17 MEQ/L
  TOTAL BILIRUBIN: 0.17 mg/dL
  TOTAL PROTEIN: 5.67 G/DL
  URIC ACID: 1.47 mg/dL
[3]
  ABSOLUTE BASOPHIL: 0 CELLS/uL
  ABSOLUTE EOSINOPHIL: 0 CELLS/uL
  ABSOLUTE LYMPHOCYTE: 15031 CELLS/uL
  ABSOLUTE MONOCYTE: 0 CELLS/uL
  ABSOLUTE SEGMENTED NEUTROPHIL: 1769 CELLS/uL
  BASOPHIL: 0%
  EOSINOPHIL: 0%
  ERYTHROCYTE COUNT: 5.39 x10E6/uL
  HEMATOCRIT: 32.93%
  HEMOGLOBIN: 13.6 G/DL
  LEUKOCYTE COUNT: 16.8 x10E3/uL
  LYMPHOCYTE: 89.33%
  MEAN CORPUSCULAR HEMOGLOBIN: 25.27 pg
  MEAN CORPUSCULAR HEMOGLOBIN CONCENTRATION: 41.33 G/DL
  MEAN CORPUSCULAR VOLUME: 61.1 fL
  MONOCYTE: 0%
  NEUTROPHIL: 10.67%
  NUCLEATED RED BLOOD CELLS: 0.33 /100WBC
  PLATELET COUNT: 1249 x10E3/uL
  ALANINE AMINOTRANSFERASE: 87.67 u/L
  ALBUMIN: 3.67 G/DL
  ALKALINE PHOSPHATASE: 458 u/L
  ASPARTATE AMINOTRANSFERASE: 128 u/L
  BLOOD UREA NITROGEN: 17.67 mg/dL
  CARBON DIOXIDE: 25.33 mmol/L
  CHLORIDE: 103.67 MEQ/L
  CHOLESTEROL: 65.67 mg/dL
  CREATINE PHOSPHOKINASE: 774.33 u/L
  CREATININE: 0.18 mg/dL
  GLUCOSE: 148.33 mg/dL
  LACTATE DEHYDROGENASE: 301.67 u/L
  LIPASE: 10.67 u/L
  PHOSPHORUS: 12.57 mg/dL
  POTASSIUM: 5.93 MEQ/L
  SODIUM: 142.9 MEQ/L
  TOTAL BILIRUBIN: 0.2 mg/dL
  TOTAL PROTEIN: 5.13 G/DL
  URIC ACID: 1.47 mg/dL
[4]
  ABSOLUTE BASOPHIL: 0 CELLS/uL
  ABSOLUTE EOSINOPHIL: 45 CELLS/uL
  ABSOLUTE LYMPHOCYTE: 16299.33 CELLS/uL
  ABSOLUTE MONOCYTE: 207.67 CELLS/uL
  ABSOLUTE SEGMENTED NEUTROPHIL: 1114.67 CELLS/uL
  BASOPHIL: 0%
  EOSINOPHIL: 0.33%
  ERYTHROCYTE COUNT: 5.62 x10E6/uL
  HEMATOCRIT: 34.17%
  HEMOGLOBIN: 13.87 G/DL
  LEUKOCYTE COUNT: 17.67 x10E3/uL
  LYMPHOCYTE: 92.33%
  MEAN CORPUSCULAR HEMOGLOBIN: 24.73 pg
  MEAN CORPUSCULAR HEMOGLOBIN CONCENTRATION: 40.6 G/DL
  MEAN CORPUSCULAR VOLUME: 60.87 fL
  MONOCYTE: 1%
  NEUTROPHIL: 6.33%
  NUCLEATED RED BLOOD CELLS: 0 /100WBC
  PLATELET COUNT: 1205.33 x10E3/uL
  ALANINE AMINOTRANSFERASE: 64.33 u/L
  ALBUMIN: 4.1 G/DL
  ALKALINE PHOSPHATASE: 388 u/L
  ASPARTATE AMINOTRANSFERASE: 79.33 u/L
  BLOOD UREA NITROGEN: 16 mg/dL
  CARBON DIOXIDE: 37.67 mmol/L
  CHLORIDE: 99.33 MEQ/L
  CHOLESTEROL: 79 mg/dL
  CREATINE PHOSPHOKINASE: 125 u/L
  CREATININE: 0.15 mg/dL
  GLUCOSE: 142 mg/dL
  LACTATE DEHYDROGENASE: 75 u/L
  LIPASE: 10.33 u/L
  PHOSPHORUS: 10.97 mg/dL
  POTASSIUM: 6.65 MEQ/L
  SODIUM: 142.6 MEQ/L
  TOTAL BILIRUBIN: 0.2 mg/dL
  TOTAL PROTEIN: 5.8 G/DL
  URIC ACID: 1.7 mg/dL
